# Reference: patent US12583895B2, “Polypeptides for restoring endothelial function and methods of use thereof” (Vanderbilt University, priority 2019, dated 2026)
# Entries after “also recorded” stand apart in the source; their conditions may differ. Non-standard residues stand in square brackets, D forms with d. No end group written: not given here. pS = N[C@@H](COP(=O)(O)O)C(=O)O
# Experiments:
# [1] = tested on: human saphenous veins (HSV); assay: Endothelial-dependent relaxation of human saphenous veins from CABG patients, muscle bath; format: cell-based; settings: human saphenous vein; for endothelial function (percent relaxation to carbachol) in HSV / relaxation responses normalized to baseline relaxation in HSV: 1 hour; for relaxation responses normalized to baseline relaxation in HSV: mean±SD
# Protocol: Human saphenous veins (HSV) were collected from patients undergoing coronary artery bypass grafting procedures and treated with NiPp (500 μM) for 1 hour at room temperature. PE-precontracted tissues were treated with carbachol (CCH; 10^−8 to 10^−5M). Percent relaxation was determined as a change to the maximal PE-induced contraction. Data are reported as mean responses±standard deviation. n=2. Baseline endothelial function in HSV was low.
# PE-precontracted tissues were treated with carbachol (CCH; 10^−8 to 10^−5M). Percent relaxation were determined as a change to the maximal PE-induced contraction. Data are reported as mean responses±standard deviation. n=10. […] When normalized to baseline relaxation, NiPp led to 255±321.5% in relaxation responses in HSV.
# HSV were suspended in the muscle bath, contracted with PE and treated with carbachol (CCH; 10^−8 to 10^−5 M). The percent relaxation was determined as a change to the maximal PE-induced contraction. Percent relaxation to 5×10^−6 M CCH is shown. n=10; *p<0.05 in paired t-test. […] Data are expressed as mean±SD.
# Human saphenous veins (HSV) was obtained under approval from the Institutional Review Board of Vanderbilt University Medical Center from consented patients undergoing coronary artery bypass grafting procedures. HSV segments were collected immediately following surgical harvest and transported to the laboratory in PL for immediate experimentation.
# Measurement of endothelial-dependent relaxation. Rings of HSV or RA (1-2 mm) were suspended in a muscle bath containing a bicarbonate buffer (120 mM sodium chloride, 4.7 mM potassium chloride, 1.0 mM magnesium sulfate, 1.0 mM monosodium phosphate, 10 mM glucose, 1.5 mM calcium chloride, and 25 mM sodium bicarbonate, pH 7.4) equilibrated with 95% O2/5% CO2 at 37° C. for 1 h at a resting tension of 1 g, manually stretched to three times the resting tension, and maintained at resting tension for an additional 1 h.
# This produced the maximal force tension relationship as previously described. After equilibration, the rings were primed with 110 mM potassium chloride (with equimolar replacement of sodium chloride in bicarbonate buffer) to determine functional viability. Viable rings were then tested for contractile response to a dose of phenylephrine (PE) to yield submaximal contraction (approximately 60-70% of maximum KCl; 5×10^−6 M for HSV and 1-5×10^−7 M for RA) and relaxed with carbachol (CCH, 5×10^−7 M), an acetylcholine analogue, to determine endothelial-dependent relaxation responses. Force measurements were obtained using the Radnoti force transducer (model 159901A, Radnoti LLC, Monrovia, CA) interfaced with a PowerLab data acquisition system and LabChart software (AD Instruments Inc., Colorado Springs, CO). Contractile responses were defined by stress, calculated using force generated by tissues as follows: stress (×10^5 N/m^2)=force (g)×0.0987/area, where area=wet weight (mg)/at maximal length (mm)]/1.055.
# Relaxation was calculated as percent change in stress compared to the maximal PE-induced contraction (set as 100%). Each data point was averaged from at least two rings from the same specimen. To determine concurrent signaling events, tissues were frozen in liquid nitrogen at relevant timepoints.
# This study illustrates that the NiPp polypeptide (SEQ ID NO:1) restores endothelial function in aged human saphenous veins. […]
# p38 MAPK phosphorylation = p38 MAPK phosphorylation (Western blot) in rat aorta after subfailure stretch injury; format: cell-based; settings: NiPp 500 μM, 1 h, immunoblot
# Protocol: Freshly isolated rat aorta (RA) was subjected to subfailure stretch and incubated in PL in the absence (S) or presence of NiPp (500 μM) for 1 h at room temperature. […] The percent relaxation was determined as a change to the maximal PE-induced contraction. n=5 rats; #p<0.05, two-way ANOVA. […] Quantification of relative phosphorylation to total p38MAPK level is shown. N=10. *p<0.05, in one-way ANOVA with Tukey post-test. NiPp restores endothelial dysfunction and reduced p38 MAPK phosphorylation induced by stretch injury in RA.
# Vascular injury and treatment of RA. Abdominal RA was subjected to subfailure stretch to the haptic endpoint (˜200% the resting length) for 10 s and repeated twice as previously described and a segment was reserved as non-stretched control. The tissues were then cut into 1-2 mm rings and incubated for 1 h at room temperature in PL with or without NiPp (500 μM). To induce acidotic injury, thoracic RA were cut into 1-2 mm rings and pretreated in the absence or presence of NiPp (500 μM) in PL for 30 min. […]
# Western blot Analysis. […] The protein-antibody complexes were visualized and quantified using the Odyssey Infrared Imaging System. Phosphorylation was calculated as a ratio of the phosphorylated protein to total protein and was then normalized to the untreated tissues (Ctrl) with the control value set as 1.0.
substance,measurement,setting,value
"YARAAARQARASPAARRA(pS)AILPG (YARAAARQARASPAARRA[pS]AILPG) [NiPp, Cell-permeant phosphopeptide mimetic of Niban: transduction domain … conjugated to the region surrounding serine 602 of Niban]",endothelial-dependent relaxation in HSV (percent relaxation to 5×10^−6 M CCH),"[1]; NiPp 100 μM in PL, 2 h, room temperature, n=10",improves; also recorded: improvement
same,endothelial function (percent relaxation to carbachol) in HSV,"[1]; NiPp 100 μM, room temperature, n=10",increased endothelial function
same,relaxation responses normalized to baseline relaxation in HSV,"[1]; NiPp 100 μM, n=10",255±321.5%
same,endothelial function (percent relaxation to carbachol) in HSV,"[1]; NiPp 500 μM, room temperature, n=2",increased endothelial function
same,relaxation responses normalized to baseline relaxation in HSV,"[1]; NiPp 500 μM, n=2",183±24%
same,p38 MAPK phosphorylation relative to total p38 MAPK after stretch injury,p38 MAPK phosphorylation,reduced
